This is an account of results in article PMC10755693, “Widespread Family of NAD^+-Dependent Sulfoquinovosidases at the Gateway to Sulfoquinovose Catabolism” (Journal of the American Chemical Society, 2023).

The target in the assay is T1, ArSqgA (Arthrobacter sp. U41, UniProt Z9RXK5N058).
T1 construct: synthetic gene with codons harmonized for E. coli; homodimer; GH188
T1 sequence (Z9RXK5N058 14-392): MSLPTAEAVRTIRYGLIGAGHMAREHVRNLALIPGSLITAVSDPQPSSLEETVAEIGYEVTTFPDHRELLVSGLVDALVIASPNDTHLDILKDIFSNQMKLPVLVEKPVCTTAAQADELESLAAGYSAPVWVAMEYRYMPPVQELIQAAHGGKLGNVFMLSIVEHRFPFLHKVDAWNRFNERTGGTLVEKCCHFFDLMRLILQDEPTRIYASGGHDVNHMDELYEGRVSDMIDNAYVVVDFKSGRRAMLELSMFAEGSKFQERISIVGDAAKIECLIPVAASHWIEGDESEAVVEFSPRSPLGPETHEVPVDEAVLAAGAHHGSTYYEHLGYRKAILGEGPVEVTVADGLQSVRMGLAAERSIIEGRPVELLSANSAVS
Nature of the assay: X-ray crystal structure, […] Å. It counts as binding. The following applies: Rossmann domain cleft; binary complex.

Regarding `NC(=O)c1ccc[n+]([C@@H]2O[C@H](COP(=O)(O)OP(=O)(O)OC[C@H]3O[C@@H](n4cnc5c(N)ncnc54)[C@H](O)[C@@H]3O)[C@@H](O)[C@H]2O)c1` [NAD^+], the “X-ray crystal structure, 2.65 Å” value was “modeling of a single molecule of NAD^+ bound in an extended conformation in each monomer”.
